Results taken from US20150353495A1 (PORTOLA PHARMACEUTICALS, INC., priority 2010, published 2015).

Columns and labels:
Assay type in all cases: biochemical
[1] = biological target: T1, JAK3 (Homo sapiens, UniProt P52333); test: Z'-LYTE kinase assay JAK3
T1 construct: 5 μl of catalytic domain recombinant Kinase enzyme+Tyr peptide substrate (Invitrogen, CA); purchased Invitrogen
Experimental: (§1) JAK and TYK2 tyrosine phosphorylation activity is measured using the Z′-LYTE™ Technology developed by Invitrogen Corporation (Carlsbad, Calif.). For JAK1, JAK2 and JAK3 the Z′-LYTE™ Kinase Assay Kit-Tyr6 Peptide (part number PV4122) was used. For TYK2 the Z′-LYTE™ Kinase Assay Kit-Tyr6 Peptide (part number PV3192) was used. The Z′-LYTE™ biochemical assay employs a fluorescence resonance energy transfer (FRET) coupled-enzyme format and is based on the differential sensitivity of phosphorylated and non-phosphorylated peptides to proteolitic cleavage. The assay uses a synthetic peptide substrate that is labelled with a donor fluorophore (coumarin) and an acceptor fluorophore (fluorescein) that make up a FRET pair. In the primary reaction (the Kinase Reaction), the kinase transfers the γ-phosphate of ATP to a single tyrosine residue on the substrate, while the presence of a kinase inhibitor in the primary reaction suppresses phosphorylation. In the secondary reaction (the Development Reaction), a site-specific protease (the Development Reagent) is added. The development buffer quenches the Kinase Reaction, while the protease recognizes and cleaves non-phosphorylated Z′-LYTE™ peptide substrate. Cleavage disrupts FRET between the donor and acceptor fluorophores on the non-phosphoryleted substrate, while uncleaved, phosphorylated substrate maintains FRET.
(§2) To test the ability of candidate molecules to inhibit JAK tyrosine phosphorylation activity, molecules are reconstituted in 100% DMSO and serially diluted 1:10 in polypropylene v-bottom microtiter plates. The candidate molecules are then diluted 1:25 into kinase buffer and 2.5 μl transferred into duplicate wells of a 384 well low volume black microtiter assay plate (Corning, USA). The final DMSO concentration in the assay is 1%. The kinase reaction contains 2.5 μl of a candidate molecule, 5 μl of catalytic domain recombinant Kinase enzyme+Tyr peptide substrate (Invitrogen, CA) and 2.5 μl ATP (Invitrogen, CA). The kinase reaction is allowed to procede for 1 hour at room temperature. The protease reaction is initiated by the addition of 5 μl Development Reagent (Invitrogen, CA). After 1 hour incubation at room temperature the fluorescence is measured using a FlexStation plate reader (Molecular Devices, Sunnyvale, Calif.).

[2] = biological target: T2, JAK1 (Homo sapiens, UniProt P23458); test: Z'-LYTE kinase assay JAK1
T2 construct: 5 μl of catalytic domain recombinant Kinase enzyme+Tyr peptide substrate (Invitrogen, CA); purchased Invitrogen
T2 sequence (P23458 875-1153 limits assumed): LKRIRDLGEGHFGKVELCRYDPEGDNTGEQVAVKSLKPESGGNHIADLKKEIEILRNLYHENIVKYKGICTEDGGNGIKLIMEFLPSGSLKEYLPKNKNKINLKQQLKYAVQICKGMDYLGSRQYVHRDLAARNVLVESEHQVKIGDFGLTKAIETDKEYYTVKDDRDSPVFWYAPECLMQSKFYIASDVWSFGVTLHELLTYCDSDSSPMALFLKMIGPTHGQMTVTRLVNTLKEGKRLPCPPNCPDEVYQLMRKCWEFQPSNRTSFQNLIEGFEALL
Experimental: as §1, §2

[3] = biological target: T3, JAK2 (Homo sapiens, UniProt O60674); test: Z'-LYTE kinase assay JAK2
T3 construct: 5 μl of catalytic domain recombinant Kinase enzyme+Tyr peptide substrate (Invitrogen, CA); purchased Invitrogen
T3 sequence (O60674 849-1124 limits assumed): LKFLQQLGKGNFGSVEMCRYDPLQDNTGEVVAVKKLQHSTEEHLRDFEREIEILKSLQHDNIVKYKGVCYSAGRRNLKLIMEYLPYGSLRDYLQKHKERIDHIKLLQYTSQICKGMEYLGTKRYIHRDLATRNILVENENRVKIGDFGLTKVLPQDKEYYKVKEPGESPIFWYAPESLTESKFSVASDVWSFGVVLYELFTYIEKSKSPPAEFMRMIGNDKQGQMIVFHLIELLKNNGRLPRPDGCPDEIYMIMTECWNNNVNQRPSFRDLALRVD
Experimental: as §1, §2

T1 sequence (P52333 822-1111 limits assumed): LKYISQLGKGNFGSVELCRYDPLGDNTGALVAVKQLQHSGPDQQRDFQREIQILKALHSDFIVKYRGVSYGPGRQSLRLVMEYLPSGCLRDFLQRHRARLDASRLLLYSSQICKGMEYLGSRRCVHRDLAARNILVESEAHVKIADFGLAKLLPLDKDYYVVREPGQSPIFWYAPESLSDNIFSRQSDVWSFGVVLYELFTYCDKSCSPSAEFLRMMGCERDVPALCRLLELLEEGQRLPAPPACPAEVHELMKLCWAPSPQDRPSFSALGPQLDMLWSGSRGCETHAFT

Row | SMILES | IC50 [1] | IC50 [2] | IC50 [3]
1 | CN(C)C(=O)c1ccc(Nc2cc(NCc3ccccc3)c(C(=O)N(C)C)cn2)cc1 [Example 30, 4-(benzylamino)-6-(4-(dimethylcarbamoyl)phenylamino)-N,N-dimethylnicotinamide] | > 1 µM | > 1 µM | > 1 µM
2 | COc1ccc(Nc2cc(NCC3CCCC3)c(C(N)=O)cn2)cc1 [Example 32, 4-(cyclopentylmethylamino)-6-(4-methoxyphenylamino)nicotinamide] | 0.1 to 1 µM | > 1 µM | > 1 µM
3 | COc1ccc(Nc2cc(Nc3ccc(C)cc3)c(C(N)=O)cn2)cc1 [Example 33, 6-(4-methoxyphenylamino)-4-(p-tolylamino)nicotinamide] | > 1 µM | > 1 µM | > 1 µM
4 | COc1ccc(Nc2cc(Nc3ccc(OC)cc3)c(C(N)=O)cn2)cc1 [Example 34, 4,6-bis(4-methoxyphenylamino)nicotinamide] | > 1 µM | > 1 µM | > 1 µM
5 | COc1ccc(Nc2cc(NCC3CCN(C(C)=O)CC3)c(C(N)=O)cn2)cc1 [Example 35, 4-((1-acetylpiperidin-4-yl)methylamino)-6-(4-methoxyphenylamino)nicotinamide] | > 1 µM | > 1 µM | > 1 µM
6 | COc1ccc(Nc2cc(N[C@H]3CCCN(C(C)=O)C3)c(C(N)=O)cn2)cc1 [Example 36, (S)-4-(1-acetylpiperidin-3-ylamino)-6-(4-methoxyphenylamino)nicotinamide] | > 1 µM | > 1 µM | > 1 µM
7 | COc1ccc(Nc2cc(N[C@@H]3CCCN(C(C)=O)C3)c(C(N)=O)cn2)cc1 [Example 37, (R)-4-(1-acetylpiperidin-3-ylamino)-6-(4-methoxyphenylamino)nicotinamide] | > 1 µM | > 1 µM | > 1 µM
8 | NC(=O)c1cnc(Nc2ccc(C(=O)N3CCOCC3)cc2)cc1NCC1CCCC1 [Example 42, 4-(cyclopentylmethylamino)-6-(4-(morpholine-4-carbonyl)phenylamino)nicotinamide] | 0.01 to 0.1 µM | 0.1 to 1 µM | 0.1 to 1 µM
9 | CC(=O)N1CCC(CNc2cc(Nc3ccc(C(=O)N4CCCC4)cc3)ncc2C(N)=O)CC1 [Example 43, 4-((1-acetylpiperidin-4-yl)methylamino)-6-(4-(pyrrolidine-1-carbonyl)phenylamino)nicotinamide] | 0.1 to 1 µM | > 1 µM | > 1 µM
10 | CC(=O)N1CCC(CNc2cc(Nc3ccc(C(=O)N4CCOCC4)cc3)ncc2C(N)=O)CC1 [Example 44, 4-((1-acetylpiperidin-4-yl)methylamino)-6-(4-(morpholine-4-carbonyl)phenylamino)nicotinamide] | > 1 µM | > 1 µM | > 1 µM
11 | NC(=O)c1cnc(Nc2ccc(S(=O)(=O)N3CCC3)cc2)cc1NCc1ccccc1 [Example 47, 6-(4-(azetidin-1-ylsulfonyl)phenylamino)-4-(benzylamino)nicotinamide] | 0.1 to 1 µM | > 1 µM | > 1 µM
12 | NC(=O)c1cnc(Nc2ccc(C(=O)N3CCC3)cc2)cc1NCC1CCCC1 [Example 48, 6-(4-(azetidine-1-carbonyl)phenylamino)-4-(cyclopentylmethylamino)nicotinamide] | 0.01 to 0.1 µM | 0.1 to 1 µM | 0.1 to 1 µM
13 | NC(=O)c1cnc(Nc2ccc(S(=O)(=O)N3CCC3)cc2)cc1NCC1CCCC1 [Example 49, 6-(4-(azetidin-1-ylsulfonyl)phenylamino)-4-(cyclopentylmethylamino)nicotinamide] | 0.1 to 1 µM | > 1 µM | > 1 µM
14 | CC(=O)N1CCC(CNc2cc(Nc3ccc(C(=O)N4CCC4)cc3)ncc2C(N)=O)CC1 [Example 50, 4-((1-acetylpiperidin-4-yl)methylamino)-6-(4-(azetidine-1-carbonyl)phenylamino)nicotinamide] | > 1 µM | > 1 µM | > 1 µM
15 | COCC(=O)N1CCC[C@@H](CNc2cc(Nc3ccc(OC)cc3)ncc2C(N)=O)C1 [Example 51, (S)-4-((1-(2-methoxyacetyl)piperidin-3-yl)methylamino)-6-(4-methoxyphenylamino)nicotinamide] | 0.1 to 1 µM | > 1 µM | > 1 µM
16 | COC(=O)N1CCC[C@@H](CNc2cc(Nc3ccc(OC)cc3)ncc2C(N)=O)C1 [Example 52, (S)-methyl 3-((5-carbamoyl-2-(4-methoxyphenylamino)pyridin-4-ylamino)methyl)piperidine-1-carboxylate] | 0.1 to 1 µM | > 1 µM | > 1 µM
17 | COc1ccc(Nc2cc(NC[C@@H]3CCCN(C(=O)N(C)C)C3)c(C(N)=O)cn2)cc1 [Example 53, (S)-4-((1-(dimethylcarbamoyl)piperidin-3-yl)methylamino)-6-(4-methoxyphenylamino)nicotinamide] | 0.1 to 1 µM | > 1 µM | > 1 µM
18 | COc1ccc(Nc2cc(NC[C@H]3CCCN(C(C)=O)C3)c(C(N)=O)cn2)cc1 [Example 54] | 0.01 to 0.1 µM | > 1 µM | 0.1 to 1 µM
19 | COCC(=O)N1CCC[C@H](CNc2cc(Nc3ccc(OC)cc3)ncc2C(N)=O)C1 [Example 55, (R)-4-((1-(2-methoxyacetyl)piperidin-3-yl)methylamino)-6-(4-methoxyphenylamino)nicotinamide] | 0.01 to 0.1 µM | > 1 µM | > 1 µM
20 | COC(=O)N1CCC[C@H](CNc2cc(Nc3ccc(OC)cc3)ncc2C(N)=O)C1 [Example 56, (R)-methyl 3-((5-carbamoyl-2-(4-methoxyphenylamino)pyridin-4-ylamino)methyl)piperidine-1-carboxylate] | 0.1 to 1 µM | > 1 µM | > 1 µM
21 | COc1ccc(Nc2cc(NC[C@H]3CCCN(S(C)(=O)=O)C3)c(C(N)=O)cn2)cc1 [Example 57, (R)-6-(4-methoxyphenylamino)-4-((1-(methylsulfonyl)piperidin-3-yl)methylamino)nicotinamide] | 0.01 to 0.1 µM | > 1 µM | 0.1 to 1 µM
22 | CN1C(=O)COc2ccc(Nc3cc(NCc4ccccc4)c(C(N)=O)cn3)cc21 [Example 85, 4-(benzylamino)-6-(4-methyl-3-oxo-3,4-dihydro-2H-benzo[b][1,4]oxazin-6-ylamino)nicotinamide] | 0.01 to 0.1 µM | > 1 µM | > 1 µM
23 | NC(=O)c1cnc(Nc2ccc3ncccc3c2)cc1NCc1ccccc1 [Example 86, 4-(benzylamino)-6-(quinolin-6-ylamino)nicotinamide] | 0.01 to 0.1 µM | > 1 µM | > 1 µM
24 | NC(=O)c1cnc(Nc2ccc3cccnc3c2)cc1NCc1ccccc1 [Example 87, 4-(benzylamino)-6-(quinolin-7-ylamino)nicotinamide] | 0.1 to 1 µM | > 1 µM | > 1 µM
25 | NC(=O)c1cnc(Nc2ccc3cnccc3c2)cc1NCc1ccccc1 [Example 88, 4-(benzylamino)-6-(isoquinolin-6-ylamino)nicotinamide] | 0.01 to 0.1 µM | > 1 µM | > 1 µM
26 | NC(=O)c1cnc(Nc2ccc3ccncc3c2)cc1NCc1ccccc1 [Example 89, 4-(benzylamino)-6-(isoquinolin-7-ylamino)nicotinamide] | 0.1 to 1 µM | > 1 µM | > 1 µM
27 | NC(=O)c1cnc(Nc2ccc3ncsc3c2)cc1NCc1ccccc1 [Example 90, 6-(benzo[d]thiazol-6-ylamino)-4-(benzylamino)nicotinamide] | 0.01 to 0.1 µM | > 1 µM | > 1 µM
28 | CN(C)C(=O)c1cccc(Nc2cc(NCC3CCCC3)c(C(N)=O)cn2)c1 [Example 95, 4-(cyclopentylmethylamino)-6-(3-(dimethylcarbamoyl)phenylamino)nicotinamide] | 0.01 to 0.1 µM | 0.1 to 1 µM | 0.1 to 1 µM
29 | CN(C)C(=O)c1ccc(Nc2cc(NCC3CCCC3)c(C(N)=O)cn2)cc1 [Example 96, 4-(cyclopentylmethylamino)-6-(4-(dimethylcarbamoyl)phenylamino)nicotinamide] | 0.01 to 0.1 µM | 0.1 to 1 µM | 0.1 to 1 µM
30 | CN(C)S(=O)(=O)c1ccc(Nc2cc(NCC3CCCC3)c(C(N)=O)cn2)cc1 [Example 97, 4-(cyclopentylmethylamino)-6-(4-(N,N-dimethylsulfamoyl)phenylamino)nicotinamide] | 0.1 to 1 µM | > 1 µM | > 1 µM
